Tests used:
Experiment in all cases: MS-based quantitative proteomics in NCI-H929 cells
Format in all cases: cell-based
IKZF4 = molecular target: T1, IKZF4 (Homo sapiens, UniProt Q9H2S9); conditions: NCI-H929, 10 μM, 4 h; not notably downregulated
T1 construct: endogenous in cells; host or cells: NCI-H929
Procedure: (§1) NCI-H929 cells were treated with either 10 μM DMSO or 10 μM MGD-C9 for 4 h. Post-treatment, the cells were washed with PBS (pH = 7.2–7.4, 1×) and then lysed in 8M Urea (UA) (comprising 8M urea, 100 mM Tris-HCl, pH = 8.0). Subsequently, the cell lysate was subjected to centrifugation on a high-speed freezing microcentrifuge (#CF1524R; SCILOGEX, Meriden, CT, USA) at […], and the supernatant was collected. Subsequently, the collected supernatant was treated with 10 mM tris (2-carboxyethyl) phosphine hydrochloride (TCEP) to reduce it for 30 min. Following this, cysteine alkylation was performed using 50 mM 2-chloroacetamide (CAA) for an additional 30 min. The denatured proteins were then digested with trypsin (1 μg/μL) at an enzyme-to-protein ratio of 1:50 and incubated at 37°C overnight. The reaction was stopped by adding 0.1% formic acid (FA). The samples were desalted using 100 μL pipette tips packed with C18 discs (3M, Saint Paul, MN, USA). Prior to sample loading, the tips were conditioned sequentially with 80 μL of acetonitrile (ACN), followed by 80 μL of a 1:1 (v/v) mixture of H2O and ACN, and finally with 80 μL of H2O. The conditioned tips were loaded with peptides. Then, they were washed twice with 80 μL of H2O. After that, the peptides were eluted twice using 80 μL of a solution composed of 50% water and 50% acetonitrile (ACN). The resulting eluates were vacuum-dried and then reconstituted in 0.1% formic acid for the subsequent LC-MS/MS analysis.
(§2) The peptide mixtures were analyzed using an EASY-nLC 1200 liquid chromatography system (Thermo Fisher Scientific, WLM, MA, USA) equipped with a custom-made 15 cm C18 column (150 μm ID, 1.9 μm particle size, 100 Å pore size). Peptide separation was performed over a 75-min gradient at a constant flow rate of 600 nL/min. The gradient profile was as follows: 4%–7% buffer B (1 min), 7%–13% buffer B (6 min), 13%–25% buffer B (38 min), 25%–45% buffer B (22 min), 45%–95% buffer B (1 min), followed 95% buffer B (7-min). The buffers used were Buffer A (0.1% formic acid) and Buffer B (0.1% formic acid in 80% acetonitrile). The peptide mixtures were then analyzed using a Q Exactive HF mass spectrometer (Thermo Fisher Scientific). MS data were acquired in data-dependent acquisition (DDA) mode with a dynamic exclusion duration of 15 s. MS1 scans were acquired in positive-ion mode across a mass-to-charge (m/z) range of 300–1400, with a resolution of 120,000 (at m/z 200) and a maximum injection time of 50 ms. Precursor ions were fragmented using higher-energy collision dissociation (HCD) at 27% normalized collision energy. MS2 spectra were collected with an AGC target of 5.0 × 10^4 and a maximum injection time of 20 ms.
(§3) Label-free MS raw data were processed using MaxQuant (v2.4) against the UniProt Human database (https://www.uniprot.org/, downloaded May 2024; 20,434 entries). A strict false discovery rate (FDR) threshold of ≤0.01 was applied at the spectra, protein, and modification levels. Contaminants and reverse database hits were excluded. Default settings were used for all other parameters. Protein groups output by MaxQuant were further analyzed in R (v4.2.1). Student’s t-test, and p-values < 0.01 were considered statistically significant for statistical analyses and a volcano plot was generated with GraphPad Prism 8.0.

IKZF1 = molecular target: T2, IKZF1 (Homo sapiens, UniProt Q13422+Q96SW2); conditions: NCI-H929, 10 μM, 4 h
T2 construct: endogenous in cells; host or cells: NCI-H929
Procedure: as §1, §2, §3

PLZF = molecular target: T3, PLZF (Homo sapiens, UniProt Q05516); conditions: NCI-H929, 10 µM
T3 construct: endogenous in cells; host or cells: NCI-H929
Procedure: as §1, §2, §3

SALL4 = molecular target: T4, SALL4 (Homo sapiens, UniProt Q9UJQ4); conditions: NCI-H929, 10 µM
T4 construct: endogenous in cells; host or cells: NCI-H929
Procedure: as §1, §2, §3

IKZF3 = molecular target: T5, IKZF3 (Homo sapiens, UniProt Q96SW2+Q9UKT9); conditions: NCI-H929, 10 μM, 4 h
T5 construct: endogenous in cells; host or cells: NCI-H929
Procedure: as §1, §2, §3

GSPT1 = molecular target: T6, GSPT1 (Homo sapiens, UniProt P15170); conditions: NCI-H929, 10 μM, 4 h; not notably downregulated
T6 construct: endogenous in cells; host or cells: NCI-H929
Procedure: as §1, §2, §3

CK1α = molecular target: T7, CK1α (Homo sapiens, UniProt P48729); conditions: NCI-H929, 10 μM, 4 h; not notably downregulated
T7 construct: endogenous in cells; host or cells: NCI-H929
Procedure: as §1, §2, §3

IKZF5 = molecular target: T8, IKZF5 (Homo sapiens, UniProt Q9H5V7); conditions: NCI-H929, 10 μM, 4 h; not notably downregulated
T8 construct: endogenous in cells; host or cells: NCI-H929
Procedure: as §1, §2, §3

T2 sequence (Q13422 whole entry): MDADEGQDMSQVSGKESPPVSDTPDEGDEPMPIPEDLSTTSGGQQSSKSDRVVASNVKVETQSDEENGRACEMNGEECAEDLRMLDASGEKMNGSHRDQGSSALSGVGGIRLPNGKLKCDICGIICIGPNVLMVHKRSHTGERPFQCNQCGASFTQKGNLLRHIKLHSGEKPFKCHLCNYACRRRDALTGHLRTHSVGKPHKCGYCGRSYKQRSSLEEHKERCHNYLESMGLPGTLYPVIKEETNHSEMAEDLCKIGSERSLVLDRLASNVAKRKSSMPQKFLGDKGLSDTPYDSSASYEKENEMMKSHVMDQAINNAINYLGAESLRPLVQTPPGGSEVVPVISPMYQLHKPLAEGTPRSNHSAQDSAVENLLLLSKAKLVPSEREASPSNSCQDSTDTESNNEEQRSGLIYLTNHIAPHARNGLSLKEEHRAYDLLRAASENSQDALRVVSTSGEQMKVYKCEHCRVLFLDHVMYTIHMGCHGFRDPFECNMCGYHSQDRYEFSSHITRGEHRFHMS
T2 sequence (Q96SW2 whole entry): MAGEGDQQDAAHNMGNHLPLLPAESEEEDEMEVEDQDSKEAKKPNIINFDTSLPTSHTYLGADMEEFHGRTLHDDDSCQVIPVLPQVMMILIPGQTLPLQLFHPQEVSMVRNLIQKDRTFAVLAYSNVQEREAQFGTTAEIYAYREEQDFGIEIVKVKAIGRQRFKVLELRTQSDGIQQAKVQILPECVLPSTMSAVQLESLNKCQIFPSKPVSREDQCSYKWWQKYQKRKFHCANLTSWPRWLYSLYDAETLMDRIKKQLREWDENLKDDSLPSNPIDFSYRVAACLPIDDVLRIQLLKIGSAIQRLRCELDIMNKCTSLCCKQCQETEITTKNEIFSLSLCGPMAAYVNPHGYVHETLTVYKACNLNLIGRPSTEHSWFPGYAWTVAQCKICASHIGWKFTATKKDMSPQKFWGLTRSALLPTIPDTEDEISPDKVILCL
T2 sequence (Q16531 whole entry partner): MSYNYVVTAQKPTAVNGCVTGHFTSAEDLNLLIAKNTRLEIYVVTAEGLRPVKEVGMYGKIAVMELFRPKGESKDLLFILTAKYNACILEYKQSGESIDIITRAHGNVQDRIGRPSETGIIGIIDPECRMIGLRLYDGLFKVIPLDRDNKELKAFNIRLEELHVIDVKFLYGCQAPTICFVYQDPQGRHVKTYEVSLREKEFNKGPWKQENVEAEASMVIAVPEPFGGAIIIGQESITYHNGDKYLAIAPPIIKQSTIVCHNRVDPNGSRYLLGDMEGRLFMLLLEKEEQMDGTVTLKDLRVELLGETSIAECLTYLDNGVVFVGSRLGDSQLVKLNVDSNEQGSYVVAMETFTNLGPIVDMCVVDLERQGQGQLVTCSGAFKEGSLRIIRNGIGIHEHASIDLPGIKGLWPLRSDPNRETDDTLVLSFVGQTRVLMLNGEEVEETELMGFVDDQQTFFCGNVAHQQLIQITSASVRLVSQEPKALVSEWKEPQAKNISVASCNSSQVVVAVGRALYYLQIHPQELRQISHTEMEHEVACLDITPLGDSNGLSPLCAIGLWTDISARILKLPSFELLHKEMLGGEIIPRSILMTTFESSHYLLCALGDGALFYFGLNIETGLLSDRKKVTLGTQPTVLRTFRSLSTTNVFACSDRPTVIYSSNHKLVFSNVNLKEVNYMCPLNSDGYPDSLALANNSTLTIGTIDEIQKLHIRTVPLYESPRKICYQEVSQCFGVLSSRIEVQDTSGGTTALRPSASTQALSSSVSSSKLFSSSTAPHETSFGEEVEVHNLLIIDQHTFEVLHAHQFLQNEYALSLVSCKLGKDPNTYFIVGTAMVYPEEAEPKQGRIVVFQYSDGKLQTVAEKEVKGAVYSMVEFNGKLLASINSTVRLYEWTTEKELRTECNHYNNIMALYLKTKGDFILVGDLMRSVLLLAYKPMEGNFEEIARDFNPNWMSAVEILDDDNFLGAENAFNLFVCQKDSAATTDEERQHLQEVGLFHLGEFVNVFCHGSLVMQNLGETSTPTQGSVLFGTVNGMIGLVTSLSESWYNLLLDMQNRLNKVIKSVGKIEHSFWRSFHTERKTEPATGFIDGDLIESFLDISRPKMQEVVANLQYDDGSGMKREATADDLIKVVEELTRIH
T8 sequence (Q96SW2 whole entry partner): as the sequence (Q96SW2 whole entry) above
T8 sequence (Q16531 whole entry partner): as the sequence (Q16531 whole entry partner) above
T8 sequence (Q9H5V7 whole entry): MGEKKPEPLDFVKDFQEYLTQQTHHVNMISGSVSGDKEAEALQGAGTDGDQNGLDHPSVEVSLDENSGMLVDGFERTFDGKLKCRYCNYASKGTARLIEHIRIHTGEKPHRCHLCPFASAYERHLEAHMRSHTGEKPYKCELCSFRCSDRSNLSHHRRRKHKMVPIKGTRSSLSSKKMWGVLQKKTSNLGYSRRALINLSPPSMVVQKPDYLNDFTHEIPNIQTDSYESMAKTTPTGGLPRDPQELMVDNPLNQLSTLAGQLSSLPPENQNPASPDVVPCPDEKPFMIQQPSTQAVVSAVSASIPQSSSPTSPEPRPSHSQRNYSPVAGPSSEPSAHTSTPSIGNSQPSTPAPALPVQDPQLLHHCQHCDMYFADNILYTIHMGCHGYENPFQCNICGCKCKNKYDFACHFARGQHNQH
T4 sequence (Q96SW2 whole entry partner): as the sequence (Q96SW2 whole entry) above
T4 sequence (Q16531 whole entry partner): as the sequence (Q16531 whole entry partner) above
T4 sequence (Q9UJQ4 whole entry): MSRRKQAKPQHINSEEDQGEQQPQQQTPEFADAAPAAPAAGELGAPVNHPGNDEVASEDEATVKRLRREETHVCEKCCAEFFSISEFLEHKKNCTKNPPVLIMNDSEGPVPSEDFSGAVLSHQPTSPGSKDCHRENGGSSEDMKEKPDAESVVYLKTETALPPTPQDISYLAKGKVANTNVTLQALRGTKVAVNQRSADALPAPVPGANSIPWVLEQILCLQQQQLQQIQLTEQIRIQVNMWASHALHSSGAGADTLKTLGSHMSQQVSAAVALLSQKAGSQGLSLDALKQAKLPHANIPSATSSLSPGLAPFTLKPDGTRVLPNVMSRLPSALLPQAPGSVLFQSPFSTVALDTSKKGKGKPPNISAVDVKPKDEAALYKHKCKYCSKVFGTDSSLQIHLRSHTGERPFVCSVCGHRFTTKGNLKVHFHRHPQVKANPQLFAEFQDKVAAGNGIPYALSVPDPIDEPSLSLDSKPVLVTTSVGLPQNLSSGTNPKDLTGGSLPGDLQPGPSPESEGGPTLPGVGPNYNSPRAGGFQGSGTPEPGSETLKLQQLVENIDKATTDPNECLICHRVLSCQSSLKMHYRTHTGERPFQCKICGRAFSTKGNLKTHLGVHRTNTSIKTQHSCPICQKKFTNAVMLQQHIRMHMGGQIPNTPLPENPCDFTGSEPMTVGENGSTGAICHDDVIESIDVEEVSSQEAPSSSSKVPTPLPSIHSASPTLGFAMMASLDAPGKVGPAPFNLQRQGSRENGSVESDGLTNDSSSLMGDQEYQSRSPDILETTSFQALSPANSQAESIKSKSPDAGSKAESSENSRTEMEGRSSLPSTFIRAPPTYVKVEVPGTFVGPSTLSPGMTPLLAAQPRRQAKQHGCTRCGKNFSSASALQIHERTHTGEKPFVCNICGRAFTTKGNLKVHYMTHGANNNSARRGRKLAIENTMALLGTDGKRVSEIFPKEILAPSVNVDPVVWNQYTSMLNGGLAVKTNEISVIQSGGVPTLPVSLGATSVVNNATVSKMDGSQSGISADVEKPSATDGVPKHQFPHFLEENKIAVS
T1 sequence (Q96SW2 whole entry partner): as the sequence (Q96SW2 whole entry) above
T1 sequence (Q16531 whole entry partner): as the sequence (Q16531 whole entry partner) above
T1 sequence (Q9H2S9 whole entry): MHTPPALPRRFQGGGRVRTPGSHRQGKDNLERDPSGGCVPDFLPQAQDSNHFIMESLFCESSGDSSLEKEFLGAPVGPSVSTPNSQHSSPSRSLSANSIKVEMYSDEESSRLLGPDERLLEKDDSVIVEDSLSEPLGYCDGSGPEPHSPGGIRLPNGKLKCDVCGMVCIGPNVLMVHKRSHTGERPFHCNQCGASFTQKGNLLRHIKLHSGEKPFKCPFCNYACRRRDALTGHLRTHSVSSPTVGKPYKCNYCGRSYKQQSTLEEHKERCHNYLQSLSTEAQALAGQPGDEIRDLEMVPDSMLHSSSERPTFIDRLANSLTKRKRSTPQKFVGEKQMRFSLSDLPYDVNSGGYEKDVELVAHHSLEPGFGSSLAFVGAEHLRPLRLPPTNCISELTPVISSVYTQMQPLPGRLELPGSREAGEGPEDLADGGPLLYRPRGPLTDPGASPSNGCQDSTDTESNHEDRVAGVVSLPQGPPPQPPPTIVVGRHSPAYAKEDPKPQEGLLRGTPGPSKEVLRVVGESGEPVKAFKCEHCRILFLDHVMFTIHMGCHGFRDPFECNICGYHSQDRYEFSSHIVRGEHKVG
T6 sequence (Q96SW2 whole entry partner): as the sequence (Q96SW2 whole entry) above
T6 sequence (Q16531 whole entry partner): as the sequence (Q16531 whole entry partner) above
T6 sequence (P15170 whole entry): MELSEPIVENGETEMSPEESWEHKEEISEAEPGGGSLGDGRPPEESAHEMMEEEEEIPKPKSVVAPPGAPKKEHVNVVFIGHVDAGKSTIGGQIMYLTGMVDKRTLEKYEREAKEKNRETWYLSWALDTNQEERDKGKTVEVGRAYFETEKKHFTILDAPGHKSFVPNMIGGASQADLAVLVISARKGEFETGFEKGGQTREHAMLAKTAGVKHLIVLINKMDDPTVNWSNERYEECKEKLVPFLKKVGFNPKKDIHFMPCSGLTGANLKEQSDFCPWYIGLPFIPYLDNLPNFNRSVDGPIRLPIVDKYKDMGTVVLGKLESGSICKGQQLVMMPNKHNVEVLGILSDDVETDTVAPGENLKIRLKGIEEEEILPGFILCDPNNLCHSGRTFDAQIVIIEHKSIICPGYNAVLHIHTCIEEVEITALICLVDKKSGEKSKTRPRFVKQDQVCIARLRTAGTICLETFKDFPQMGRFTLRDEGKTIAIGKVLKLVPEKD

`CN1CCN(Cc2cccc(C(=O)NC3CCC(=O)NC3=O)c2F)C(=O)C1` (centres unmarked) [MGD-C9, N-(2,6-dioxopiperidin-3-yl)-2-fluoro-3-((4-methyl-2-oxopiperazin-1-yl)methyl)benzamide] was tested, and the “absolute [log2(fold change)] of IKZF4” value (IKZF4) was “less than 1”, the “reduction of IKZF1 (proteomics)” value (IKZF1) was “approximately 75.1%” and the “PLZF level (proteomics)” value (PLZF) was “remained unaffected”. The “SALL4 level (proteomics)” value (SALL4) was “remained unaffected”, the “reduction of IKZF3 (proteomics)” value (IKZF3) was ~80.2% and the “absolute [log2(fold change)] of GSPT1” value (GSPT1) was “less than 1”. For the same compound, the “absolute [log2(fold change)] of CK1α” value (CK1α) was “less than 1” and the “absolute [log2(fold change)] of IKZF5” value (IKZF5) was “less than 1”.

— PMC12494099, “Discovery and Characterization of Novel IKZF1/3 Glue Degraders against Multiple Hematological Cancer Cell Lines” (Oncology Research, 2025)
